Where “and” joins values, the source holds several entries; their conditions need not be identical. Equal entries are not always repeated. Inconclusive results and toxic doses are left out. The calls were made as follows: active = survival T/C of 150% or more; inactive = T/C below 125% in these data.
System: P388 leukemia ip, CD2F1 mice, survival T/C
Test: NCI In Vivo Anticancer Drug Screen. Data for tumor model P388 Leukemia (intraperitoneal) in CD2F1 (CDF1) mice
Conditions: endpoint: median survival time, higher = longer survival
Method in brief: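 Mice carrying the transplanted tumor received test compound or vehicle. Survival was recorded in each group, and the value is the treated-group measurement divided by that of the vehicle-treated control group.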

[1] = dose: 12.5 mg/kg/injection, schedule: Q01DX005 (ip), vehicle: Klucel (hydroxypropylcellulose) (HPC)
[2] = dose: 25.0 mg/kg/injection, schedule: Q01DX005 (ip), vehicle: Klucel (hydroxypropylcellulose) (HPC)
[3] = dose: 60.0 mg/kg/injection, schedule: Q01DX005 (ip), vehicle: saline with Tween-80
[4] = dose: 50.0 mg/kg/injection, schedule: Q01DX009 (ip), vehicle: saline
[5] = dose: 100.0 mg/kg/injection, schedule: Q01DX009 (ip), vehicle: saline
[6] = dose: 50.0 mg/kg/injection, schedule: Q01DX005 (ip), vehicle: Klucel (hydroxypropylcellulose) (HPC)
[7] = dose: 100.0 mg/kg/injection, schedule: Q01DX005 (ip), vehicle: Klucel (hydroxypropylcellulose) (HPC)
[8] = dose: 200.0 mg/kg/injection, schedule: Q01DX005 (ip), vehicle: Klucel (hydroxypropylcellulose) (HPC)
[9] = dose: 6.25 mg/kg/injection, schedule: Q01DX009 (ip), vehicle: saline with Tween-80
[10] = dose: 12.5 mg/kg/injection, schedule: Q01DX009 (ip), vehicle: saline with Tween-80
[11] = dose: 50.0 mg/kg/injection, schedule: Q01DX005 (ip), vehicle: saline with Tween-80
[12] = dose: 100.0 mg/kg/injection, schedule: Q01DX005 (ip), vehicle: saline with Tween-80
[13] = dose: 25.0 mg/kg/injection, schedule: Q01DX009 (ip), vehicle: Klucel (hydroxypropylcellulose) (HPC)
[14] = dose: 50.0 mg/kg/injection, schedule: Q01DX009 (ip), vehicle: Klucel (hydroxypropylcellulose) (HPC)
[15] = dose: 100.0 mg/kg/injection, schedule: Q01DX009 (ip), vehicle: Klucel (hydroxypropylcellulose) (HPC)
[16] = dose: 200.0 mg/kg/injection, schedule: Q01DX005 (ip), vehicle: saline with Tween-80
[17] = dose: 200.0 mg/kg/injection, schedule: Q01DX009 (ip), vehicle: Klucel (hydroxypropylcellulose) (HPC)
[18] = dose: 400.0 mg/kg/injection, schedule: Q01DX009 (ip), vehicle: Klucel (hydroxypropylcellulose) (HPC)
[19] = dose: 50.0 mg/kg/injection, schedule: Q01DX009 (ip), vehicle: saline with Tween-80
[20] = dose: 100.0 mg/kg/injection, schedule: Q01DX009 (ip), vehicle: saline with Tween-80
[21] = dose: 200.0 mg/kg/injection, schedule: Q01DX009 (ip), vehicle: saline with Tween-80
[22] = dose: 12.5 mg/kg/injection, schedule: Q01DX005 (ip), vehicle: saline with Tween-80
[23] = dose: 25.0 mg/kg/injection, schedule: Q01DX005 (ip), vehicle: saline with Tween-80

Measured: T/C

COc1cc(NN=C(C#N)C#N)c(OC)cc1Cl
inactive: dose: 6.25 mg/kg/injection, schedule: Q01DX005 (ip), vehicle: Klucel (hydroxypropylcellulose) (HPC) 102 % of control | [1] 107 % of control | [2] 107 % of control

Cc1ccc2cccc(OC(=O)Nc3ccc(C)c(NC(=O)Oc4cccc5ccc(C)nc45)c3)c2n1
inactive: dose: 15.0 mg/kg/injection, schedule: Q01DX005 (ip), vehicle: saline with Tween-80 95 % of control | dose: 30.0 mg/kg/injection, schedule: Q01DX005 (ip), vehicle: saline with Tween-80 97 % of control | [3] 99 % of control and 93 % of control

C[N+]1(CC2CC2)C2CC(OC(=O)C(CO)c3ccccc3)CC1C1OC12 (stereo unspecified)
inactive: [4] 99 % of control | [5] 96 % of control

CCSC(C(OC(C)=O)C(OC(C)=O)C(COC(C)=O)OC(C)=O)n1cnc2c(=S)nc[nH]c21 (stereo unspecified)
inactive: dose: 100.0 mg/kg/injection, schedule: Q01DX001 (ip), vehicle: saline with Tween-80 101 % of control | dose: 200.0 mg/kg/injection, schedule: Q01DX001 (ip), vehicle: saline with Tween-80 93 % of control | dose: 400.0 mg/kg/injection, schedule: Q01DX001 (ip), vehicle: saline with Tween-80 87 % of control

CC1=C(CO)C(=O)OC(C(C)C2CCC3C4CC5OC56C(O)C(N5CCCCC5)CC(=O)C6(C)C4CCC23C)C1 (stereo unspecified)
inactive: dose: 7.0 mg/kg/injection, schedule: Q01DX005 (ip), vehicle: Klucel (hydroxypropylcellulose) (HPC) 101 % of control | dose: 14.0 mg/kg/injection, schedule: Q01DX005 (ip), vehicle: Klucel (hydroxypropylcellulose) (HPC) 94 % of control | dose: 28.0 mg/kg/injection, schedule: Q01DX005 (ip), vehicle: Klucel (hydroxypropylcellulose) (HPC) 96 % of control | dose: 56.0 mg/kg/injection, schedule: Q01DX005 (ip), vehicle: Klucel (hydroxypropylcellulose) (HPC) 101 % of control | dose: 112.0 mg/kg/injection, schedule: Q01DX005 (ip), vehicle: Klucel (hydroxypropylcellulose) (HPC) 97 % of control

CC1=CC2(CC(C)(C)C1)N(c1ccccc1)C(=O)C2(c1ccccc1)c1ccccc1 (stereo unspecified)
inactive: [6] 91 % of control | [7] 91 % of control | [8] 87 % of control

O=C(Nc1ccc(Cl)c(Cl)c1)Nc1ccc(Cl)c(Cl)c1 (tested in a mixture with another compound)
inactive: dose: 3.13 mg/kg/injection, schedule: Q01DX009 (ip), vehicle: saline with Tween-80 97 % of control | [9] 88 % of control | [10] 94 % of control

Cc1c2c(cc3c4ccccc4n(C)c13)C(=O)NC2=O
inactive: [11] 91 % of control | [12] 90 % of control

CN(C)C1C(=O)C(C(N)=O)=C(O)C2(O)C(=O)C3=C(O)c4c(O)cccc4C(C)(O)C3CC12.O.O.O.[Al] (stereo unspecified)
inactive: [13] 95 % of control | [11] 99 % of control | [14] 92 % of control | [12] 99 % of control | [15] 103 % of control | [16] 99 % of control | [17] 106 % of control | [18] 107 % of control

Cc1ccccc1-n1c(C)nc2c(cnn2C)c1=O
inactive: [6] 100 % of control | [7] 95 % of control | [8] 97 % of control

NC(=S)c1ncn(C2OC(CO)C(O)C2O)c1N (stereo unspecified)
inactive: dose: 12.5 mg/kg/injection, schedule: Q01DX009 (ip), vehicle: saline 104 % of control | dose: 25.0 mg/kg/injection, schedule: Q01DX009 (ip), vehicle: saline 101 % of control | [4] 101 % of control | [5] 112 % of control | dose: 200.0 mg/kg/injection, schedule: Q01DX009 (ip), vehicle: saline 112 % of control | dose: 400.0 mg/kg/injection, schedule: Q01DX009 (ip), vehicle: saline 101 % of control

CCN1CCC(Nc2ccnc3cc(Cl)ccc23)CC1
inactive: [6] 99 % of control | [11] 104 % of control | [7] 94 % of control | [12] 110 % of control

CCC[n+]1ccc(/C=N\NC(N)=S)c2ccccc21
inactive: [19] 110 % of control | [20] 121 % of control | [21] 112 % of control

O=C(O)CSC(=S)CCCCCCCCCCC(=S)SCC(=O)O
inactive: [22] 111 % of control | [23] 109 % of control | [11] 116 % of control and 118 % of control

CCOC(=O)C(N=Nc1ccc(C)cc1Br)C(C)=O (stereo unspecified)
inactive: [11] 102 % of control | [12] 93 % of control | [16] 93 % of control

C=Cc1cc[n+](CC(=O)c2ccc(-c3ccccc3)cc2)cc1
inactive: dose: 12.5 mg/kg/injection, schedule: Q01DX009 (ip), vehicle: Klucel (hydroxypropylcellulose) (HPC) 103 % of control | [13] 90 % of control | [14] 92 % of control

CN(CCS(=O)(=O)O)/N=C/c1ccc2c(c1)OCO2
inactive: dose: 100.0 mg/kg/injection, schedule: Q04DX003 (ip), vehicle: Klucel (hydroxypropylcellulose) (HPC) 103 % of control | dose: 200.0 mg/kg/injection, schedule: Q04DX003 (ip), vehicle: Klucel (hydroxypropylcellulose) (HPC) 100 % of control | dose: 400.0 mg/kg/injection, schedule: Q04DX003 (ip), vehicle: Klucel (hydroxypropylcellulose) (HPC) 100 % of control

CCCCC(C)C(=O)/C=C/c1ccccc1 (stereo unspecified)
inactive: [19] 107 % of control and 120 % of control | [20] 108 % of control and 118 % of control | [21] 120 % of control | dose: 400.0 mg/kg/injection, schedule: Q01DX009 (ip), vehicle: saline with Tween-80 117 % of control

CS(C)=Nc1ccc([N+](=O)[O-])cc1
inactive: dose: 100.0 mg/kg/injection, schedule: Q01DX001 (ip), vehicle: Klucel (hydroxypropylcellulose) (HPC) 109 % of control | dose: 200.0 mg/kg/injection, schedule: Q01DX001 (ip), vehicle: Klucel (hydroxypropylcellulose) (HPC) 100 % of control

Cc1nc2c(=O)nc3n(c2nc1C)CCS3
inactive: dose: 100.0 mg/kg/injection, schedule: Q01DX001 (ip), vehicle: saline 104 % of control | dose: 200.0 mg/kg/injection, schedule: Q01DX001 (ip), vehicle: saline 102 % of control | dose: 400.0 mg/kg/injection, schedule: Q01DX001 (ip), vehicle: saline 104 % of control

O=C(/C=C/c1ccc(OCc2ccccc2)cc1)c1cccc([N+](=O)[O-])c1
inactive: dose: 50.0 mg/kg/injection, schedule: Q01DX009 (ip), vehicle: saline + alcohol 100 % of control | dose: 100.0 mg/kg/injection, schedule: Q01DX009 (ip), vehicle: saline + alcohol 92 % of control | dose: 200.0 mg/kg/injection, schedule: Q01DX009 (ip), vehicle: saline + alcohol 89 % of control

CC(C)(Sc1ccc(Cl)cc1)C(=O)OCCN1CCCCC1
inactive: [3] 91 % of control | dose: 120.0 mg/kg/injection, schedule: Q01DX005 (ip), vehicle: saline with Tween-80 92 % of control | dose: 240.0 mg/kg/injection, schedule: Q01DX005 (ip), vehicle: saline with Tween-80 92 % of control

CN=C1SC(C)(C)NN1C
inactive: [1] 104 % of control | [2] 104 % of control | [6] 101 % of control and 114 % of control

CNc1c([N+](=O)[O-])cc2[nH]c(C)nc2c1[N+](=O)[O-]
inactive: dose: 6.25 mg/kg/injection, schedule: Q04DX003 (ip), vehicle: saline with Tween-80 103 % of control | dose: 12.5 mg/kg/injection, schedule: Q04DX003 (ip), vehicle: saline with Tween-80 113 % of control | dose: 25.0 mg/kg/injection, schedule: Q04DX003 (ip), vehicle: saline with Tween-80 99 % of control and 92 % of control

O=C1NC(c2ccccc2Cl)Nc2ccccc21 (stereo unspecified)
inactive: [14] 94 % of control | [15] 92 % of control | [17] 95 % of control | [18] 90 % of control

CC(=O)NC1C([Se][As](C)C)OC(COC(C)=O)C(OC(C)=O)C1OC(C)=O (stereo unspecified)
inactive: [9] 122 % of control | [10] 116 % of control

CSC(=S)n1nc(C)c(N=Nc2cc(Cl)ccc2Cl)c1C
inactive: dose: 6.25 mg/kg/injection, schedule: Q01DX005 (ip), vehicle: saline with Tween-80 93 % of control | [22] 99 % of control | [23] 95 % of control | [16] 98 % of control
